Source: article PMC7759869 (Biomedicines, 2020)

Key:
FMO5 = target: T1, FMO5 (Homo sapiens, UniProt P49326); assay: Oxidation of cabozantinib by recombinant FMO5; assay type: in vitro ADME; settings: human recombinant enzyme, data not shown
T1 construct: purchased Gentest Corp., Woburn, MA, USA; host or cells: insect cells (baculovirus)
T1 sequence (P49326 1-533): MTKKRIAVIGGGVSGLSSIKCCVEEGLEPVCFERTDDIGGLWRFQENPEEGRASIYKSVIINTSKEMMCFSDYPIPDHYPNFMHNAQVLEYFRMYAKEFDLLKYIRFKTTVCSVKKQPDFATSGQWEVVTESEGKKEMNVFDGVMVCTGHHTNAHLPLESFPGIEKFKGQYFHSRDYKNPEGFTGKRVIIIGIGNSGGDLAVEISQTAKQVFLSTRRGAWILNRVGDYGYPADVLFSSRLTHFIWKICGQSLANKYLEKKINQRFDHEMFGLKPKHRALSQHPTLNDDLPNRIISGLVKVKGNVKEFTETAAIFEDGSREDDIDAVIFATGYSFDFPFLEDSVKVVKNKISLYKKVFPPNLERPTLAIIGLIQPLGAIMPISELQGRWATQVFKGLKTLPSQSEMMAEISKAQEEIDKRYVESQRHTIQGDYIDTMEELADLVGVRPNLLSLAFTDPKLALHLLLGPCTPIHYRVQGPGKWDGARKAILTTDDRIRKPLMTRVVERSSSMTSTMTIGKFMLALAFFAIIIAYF

[1] = parameters: concentration or dose not given beside the values; settings: metastatic renal cell carcinoma patients; cited from earlier work
MET = settings: read-out: IC50 for MET; estimated; cited from earlier work
FMO1 = target: T2, FMO1 (Homo sapiens, UniProt Q01740); assay: Oxidation of cabozantinib by recombinant FMO1; assay type: in vitro ADME; settings: human recombinant enzyme, data not shown
T2 construct: purchased Gentest Corp., Woburn, MA, USA; host or cells: insect cells (baculovirus)
T2 sequence (Q01740 1-532): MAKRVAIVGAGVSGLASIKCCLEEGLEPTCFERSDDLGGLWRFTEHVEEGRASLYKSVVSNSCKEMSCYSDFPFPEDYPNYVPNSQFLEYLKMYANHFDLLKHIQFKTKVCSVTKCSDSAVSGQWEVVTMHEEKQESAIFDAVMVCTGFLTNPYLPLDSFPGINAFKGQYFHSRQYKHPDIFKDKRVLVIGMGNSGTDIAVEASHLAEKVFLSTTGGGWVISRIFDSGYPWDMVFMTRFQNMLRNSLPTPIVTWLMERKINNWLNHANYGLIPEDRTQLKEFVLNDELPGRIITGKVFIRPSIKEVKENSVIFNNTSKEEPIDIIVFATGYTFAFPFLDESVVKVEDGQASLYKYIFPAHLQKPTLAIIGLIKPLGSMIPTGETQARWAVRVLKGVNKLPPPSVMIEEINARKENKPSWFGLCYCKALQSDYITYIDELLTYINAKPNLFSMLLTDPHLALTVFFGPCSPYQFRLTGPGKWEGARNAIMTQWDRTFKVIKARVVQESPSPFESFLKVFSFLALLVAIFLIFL
From the text: The purity of all chemicals met the standards of American Chemical Society, unless otherwise noted. […] Microsomes from livers of twelve human donors were obtained from Gentest Corp. (Woburn, MA, USA) (Lot. no. HG43-1, HG103, HG74, HG93, HG24, HG27, HG23, HG32, HK31, HK34, HG03 and HG42). […] Human recombinant enzymes were used in the forms of Supersomes™ and obtained from Corning (Corning, NY, USA). In Supersomes™, microsomal fractions were isolated from insect cells that were transfected with baculovirus constructs containing cDNA of human CYP enzymes (CYP1A1/2, 1B1, 2A6, 2B6, 2C8/9/18/19/, 2D6, 2E1, 3A4). The Supersomes™ also express NADPH:CYP oxidoreductase (POR). However, because they are microsomes (particles of broken endoplasmic reticulum), other enzymes (proteins) of the endoplasmic reticulum membrane (like NADH:cytochrome b5 reductase and cytochrome b5) are also expressed at basal levels in these Supersomes™. We also utilized Supersomes™, which overexpressed cytochrome b5, in a molar ratio of CYP to cytochrome b5 of 1 to 5. In Supersomes™, where cytochrome b5 was not overexpressed (see above), pure cytochrome b5 was added to reach a molar ratio of CYP to cytochrome b5 of 1 to 5. Reconstitution of Supersomes™ with purified cytochrome b5 was performed as described previously. Human recombinant FMOs and AO were also used in the forms of Supersomes™ (Gentest Corp., Woburn, MA, USA).

[2] = parameters: method as in earlier work; settings: cited from earlier work
FMO3 = target: T3, FMO3 (Homo sapiens, UniProt P31513); assay: Oxidation of cabozantinib by recombinant FMO3; assay type: in vitro ADME; settings: human recombinant enzyme, data not shown
T3 construct: purchased Gentest Corp., Woburn, MA, USA; host or cells: insect cells (baculovirus)
T3 sequence (P31513 1-532): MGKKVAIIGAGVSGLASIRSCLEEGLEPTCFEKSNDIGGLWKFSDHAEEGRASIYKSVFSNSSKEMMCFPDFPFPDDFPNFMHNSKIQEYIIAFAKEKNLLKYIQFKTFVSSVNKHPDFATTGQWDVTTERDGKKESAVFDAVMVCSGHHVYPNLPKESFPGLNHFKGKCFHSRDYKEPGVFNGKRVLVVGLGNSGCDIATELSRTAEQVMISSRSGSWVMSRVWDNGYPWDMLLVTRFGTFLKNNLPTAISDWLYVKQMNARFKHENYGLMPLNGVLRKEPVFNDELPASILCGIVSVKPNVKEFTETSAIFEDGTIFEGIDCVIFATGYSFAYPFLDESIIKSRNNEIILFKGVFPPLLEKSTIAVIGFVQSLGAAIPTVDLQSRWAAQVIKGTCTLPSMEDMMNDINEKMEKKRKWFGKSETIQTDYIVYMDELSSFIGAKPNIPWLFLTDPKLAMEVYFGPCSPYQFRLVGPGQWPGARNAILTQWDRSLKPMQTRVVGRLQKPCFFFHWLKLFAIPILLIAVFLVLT

RET = settings: estimated; cited from earlier work

**Q.** For `COc1cc2nccc(Oc3ccc(NC(=O)C4(C(=O)Nc5ccc(F)cc5)CC4)cc3)c2cc1OC` [cabozantinib, N′1-{4-[(6,7-dimethoxyquinolin-4-yl)oxy]phenyl}-N1-(4-fluorophenyl)cyclopropane-1,1-dicarboxamide], which “Oxidation of cabozantinib by FMO 5” value (FMO5) is on record?
**A.** Its value is “ineffective”.

**Q.** What about the IC50 (MET) of the same molecule?
**A.** The IC50 was 2 nM.

**Q.** What about the “Oxidation of cabozantinib by FMO 1” value (FMO1) of the same molecule?
**A.** The value was “ineffective”.

**Q.** What about the “Bound by proteins in human plasma” value [2] of the same molecule?
**A.** Its value is no less than 99.7%.

**Q.** What about the “Oxidation of cabozantinib by FMO 3” value (FMO3) of the same molecule?
**A.** Its value is “ineffective”.
